Test results taken from US9695155B2, “Herbicidal substituted pyrimidinyloxy benzene compounds” (E. I. DU PONT DE NEMOURS AND COMPANY, priority 2013, dated 2017).

What was measured:
barnyardgrass [1] = assay: Test A preemergence; assay type: in vivo, Echinochloa crus-galli
In short: (§1)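 Compounds in non-phytotoxic solvent with surfactant applied as soil spray preemergence, or postemergence to plants 2-10 cm at one- to two-leaf stage, in loam/sand. After approximately 10 days in greenhouse, injury rated visually versus untreated controls, 0 (no effect) to 100 (complete control).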

large (Lg) crabgrass [2] = assay: Test A preemergence; assay type: in vivo, Digitaria sanguinalis
In short: as §1

giant foxtail [3] = assay: Test A preemergence; assay type: in vivo, Setaria faberii
In short: as §1

morningglory [4] = assay: Test A preemergence; assay type: in vivo, Ipomoea spp.
In short: as §1

pigweed [5] = assay: Test A preemergence; assay type: in vivo, Amaranthus retroflexus
In short: as §1

velvetleaf [6] = assay: Test A preemergence; assay type: in vivo, Abutilon theophrasti
In short: as §1

wheat [7] = assay: Test A preemergence; assay type: in vivo, Triticum aestivum
In short: as §1

corn [8] = assay: Test A preemergence; assay type: in vivo, Zea mays
In short: as §1

barnyardgrass [9] = assay: Test A postemergence; assay type: in vivo, Echinochloa crus-galli
In short: as §1

large (Lg) crabgrass [10] = assay: Test A postemergence; assay type: in vivo, Digitaria sanguinalis
In short: as §1

giant foxtail [11] = assay: Test A postemergence; assay type: in vivo, Setaria faberii
In short: as §1

morningglory [12] = assay: Test A postemergence; assay type: in vivo, Ipomoea spp.
In short: as §1

pigweed [13] = assay: Test A postemergence; assay type: in vivo, Amaranthus retroflexus
In short: as §1

velvetleaf [14] = assay: Test A postemergence; assay type: in vivo, Abutilon theophrasti
In short: as §1

wheat [15] = assay: Test A postemergence; assay type: in vivo, Triticum aestivum
In short: as §1

corn [16] = assay: Test A postemergence; assay type: in vivo, Zea mays
In short: as §1

rice = assay: Test B flooded paddy test; assay type: in vivo, Oryza sativa; settings: Flood, 250 g ai/ha, 0 to 100 scale where 0 is no effect and 100 is complete control
In short: (§2)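 Flooded to 3 cm at the 2-leaf stage, pots received compound through the paddy water and were kept at that depth under greenhouse conditions. After 13–15 days, effect was rated by eye relative to controls, 0 = none and 100 = complete control.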

sedge, umbrella = assay: Test B flooded paddy test; assay type: in vivo, Cyperus difformis; settings: Flood, 250 g ai/ha, 0 to 100 scale where 0 is no effect and 100 is complete control
In short: as §2

Heteranthera limosa = assay: Test B flooded paddy test; assay type: in vivo; settings: Flood, 250 g ai/ha, 0 to 100 scale where 0 is no effect and 100 is complete control
In short: as §2

barnyardgrass [17] = assay: Test B flooded paddy test; assay type: in vivo, Echinochloa crus-galli; settings: Flood, 250 g ai/ha, 0 to 100 scale where 0 is no effect and 100 is complete control
In short: as §2

[18] = 125 g ai/ha, 0 to 100 scale where 0 is no effect and 100 is complete control
[19] = 500 g ai/ha, 0 to 100 scale, 0 no effect, 100 complete control, approx. 10 days
[20] = 500 g ai/ha, 0 to 100 scale, 0 no effect, 100 complete control

## Cc1cnc(Oc2ccccc2-n2cc(Br)cn2)nc1 [Compound 9]
Barnyardgrass [1]; [18]
  Barnyardgrass plant response rating: 30
Barnyardgrass [1]; [19]
  Barnyardgrass plant response rating: 100
Large (Lg) crabgrass [2]; [18]
  Crabgrass, Large plant response rating: 90
Large (Lg) crabgrass [2]; [19]
  Crabgrass, Large plant response rating: 100
Giant foxtail [3]; [18]
  Foxtail, Giant plant response rating: 80
Giant foxtail [3]; [19]
  Foxtail, Giant plant response rating: 90
Morningglory [4]; [18]
  Morningglory plant response rating: 0
Morningglory [4]; [19]
  Morningglory plant response rating: 0
Pigweed [5]; [18]
  Pigweed plant response rating: 100
Pigweed [5]; [19]
  Pigweed plant response rating: 100
Velvetleaf [6]; [18]
  Velvetleaf plant response rating: 80
Velvetleaf [6]; [19]
  Velvetleaf plant response rating: 100
Wheat [7]; [18]
  Wheat plant response rating: 0
Wheat [7]; [19]
  Wheat plant response rating: 0
Corn [8]; [18]
  Corn plant response rating: 0
Corn [8]; [19]
  Corn plant response rating: 20
Barnyardgrass [9]; [18]
  Plant response rating, Barnyardgrass: 30
Barnyardgrass [9]; [20]
  Plant response rating, Barnyardgrass: 90
Large (Lg) crabgrass [10]; [18]
  Plant response rating, Crabgrass, Large: 30
Large (Lg) crabgrass [10]; [20]
  Plant response rating, Crabgrass, Large: 80
Giant foxtail [11]; [18]
  Plant response rating, Foxtail, Giant: 30
Giant foxtail [11]; [20]
  Plant response rating, Foxtail, Giant: 90
Morningglory [12]; [18]
  Plant response rating, Morningglory: 20
Morningglory [12]; [20]
  Plant response rating, Morningglory: 30
Pigweed [13]; [18]
  Plant response rating, Pigweed: 80
Pigweed [13]; [20]
  Plant response rating, Pigweed: 90
Velvetleaf [14]; [18]
  Plant response rating, Velvetleaf: 100
Velvetleaf [14]; [20]
  Plant response rating, Velvetleaf: 100
Wheat [15]; [18]
  Plant response rating, Wheat: 0
Wheat [15]; [20]
  Plant response rating, Wheat: 30
Corn [16]; [18]
  Plant response rating, Corn: 20
Corn [16]; [20]
  Plant response rating, Corn: 50
rice
  Plant response rating, Rice: 0
sedge, umbrella
  Plant response rating, Sedge, Umbrella: 60
Heteranthera limosa
  Plant response rating, Ducksalad: 80
Barnyardgrass [17]
  Plant response rating, Barnyardgrass: 0

## Clc1cnc(Oc2ccccc2-n2ncc(Br)n2)nc1 [Compound 54, 2-[2-(4-bromo-2H-1,2,3-triazol-2-yl)phenoxy]-5-chloropyrimidine]
Barnyardgrass [1]; Echinochloa crus-galli, pre-emergence, 240 h, 1000 g ai/ha, 0 to 100 scale, 0 no effect, 100 complete control, read-out: Plant response rating, Barnyardgrass
  pest or weed control at 1000 g/ha: 0%
Large (Lg) crabgrass [2]; Digitaria sanguinalis, pre-emergence, 240 h, 1000 g ai/ha, 0 to 100 scale, 0 no effect, 100 complete control, read-out: Plant response rating, Crabgrass, Large
  pest or weed control at 1000 g/ha: 100%
Giant foxtail [3]; Setaria faberi, pre-emergence, 240 h, 1000 g ai/ha, 0 to 100 scale, 0 no effect, 100 complete control, approx. 10 days, read-out: Foxtail, Giant plant response rating
  pest or weed control at 1000 g/ha: 100%
Morningglory [4]; Ipomoea, pre-emergence, 240 h, 1000 g ai/ha, 0 to 100 scale, 0 no effect, 100 complete control, approx. 10 days, read-out: Morningglory plant response rating
  pest or weed control at 1000 g/ha: 70%
Pigweed [5]; Amaranthus retroflexus, pre-emergence, 240 h, 1000 g ai/ha, 0 to 100 scale, 0 no effect, 100 complete control, approx. 10 days, read-out: Pigweed plant response rating
  pest or weed control at 1000 g/ha: 100%
Velvetleaf [6]; Abutilon theophrasti, pre-emergence, 240 h, 1000 g ai/ha, 0 to 100 scale, 0 no effect, 100 complete control, approx. 10 days, read-out: Velvetleaf plant response rating
  pest or weed control at 1000 g/ha: 100%
Wheat [7]; Triticum aestivum, pre-emergence, 240 h, 1000 g ai/ha, 0 to 100 scale, 0 no effect, 100 complete control, approx. 10 days, read-out: Wheat plant response rating
  plant injury at 1000 g/ha: 0%
Corn [8]; Zea mays, pre-emergence, 240 h, 1000 g ai/ha, 0 to 100 scale, 0 no effect, 100 complete control
  Corn plant response rating (crop injury, 0 = no effect, 100 = complete kill) at 1000 g/ha: 20%
Barnyardgrass [9]; Echinochloa crus-galli, post-emergence, 240 h, 1000 g ai/ha, 0 to 100 scale, 0 no effect, 100 complete control, read-out: Plant response rating Barnyardgrass
  pest or weed control at 1000 g/ha: 30%
Large (Lg) crabgrass [10]; Digitaria sanguinalis, post-emergence, 240 h, 1000 g ai/ha, 0 to 100 scale, 0 no effect, 100 complete control, read-out: Plant response rating Crabgrass, Large
  pest or weed control at 1000 g/ha: 100%
Giant foxtail [11]; Setaria faberi, post-emergence, 240 h, 1000 g ai/ha, 0 to 100 scale, 0 no effect, 100 complete control, read-out: Plant response rating Foxtail, Giant
  pest or weed control at 1000 g/ha: 70%
Morningglory [12]; Ipomoea, post-emergence, 240 h, 1000 g ai/ha, 0 to 100 scale, 0 no effect, 100 complete control, read-out: Plant response rating Morningglory
  pest or weed control at 1000 g/ha: 100%
Pigweed [13]; Amaranthus retroflexus, post-emergence, 240 h, 1000 g ai/ha, 0 to 100 scale, 0 no effect, 100 complete control, read-out: Plant response rating Pigweed
  pest or weed control at 1000 g/ha: 100%
Velvetleaf [14]; Abutilon theophrasti, post-emergence, 240 h, 1000 g ai/ha, 0 to 100 scale, 0 no effect, 100 complete control, read-out: Plant response rating Velvetleaf
  pest or weed control at 1000 g/ha: 80%
Wheat [15]; Triticum aestivum, post-emergence, 240 h, 1000 g ai/ha, 0 to 100 scale, 0 no effect, 100 complete control, read-out: Plant response rating Wheat
  plant injury at 1000 g/ha: 0%
Corn [16]; Zea mays, post-emergence, 240 h, 1000 g ai/ha, 0 to 100 scale, 0 no effect, 100 complete control, read-out: Plant response rating Corn
  plant injury at 1000 g/ha: 50%
rice; Oryza sativa, read-out: Plant response rating, Rice
  plant injury at 250 g/ha: 0%
sedge, umbrella; Cyperus difformis, read-out: Plant response rating, Sedge, Umbrella
  pest or weed control at 250 g/ha: 0%
Heteranthera limosa; Heteranthera limosa, read-out: Plant response rating, Ducksalad
  pest or weed control at 250 g/ha: 0%
Barnyardgrass [17]; Echinochloa crus-galli, read-out: Plant response rating, Barnyardgrass
  pest or weed control at 250 g/ha: 0%

## FC(F)(F)c1ccc(Oc2ncc(Cl)cn2)c(-n2cc(Br)cn2)c1 [Compound 48]
Barnyardgrass [1]; [18]
  Plant response rating, Barnyardgrass: 0
Barnyardgrass [1]; [19]
  Barnyardgrass plant response rating: 0
Large (Lg) crabgrass [2]; [18]
  Plant response rating, Crabgrass, Large: 50
Large (Lg) crabgrass [2]; [19]
  Crabgrass, Large plant response rating: 80
Giant foxtail [3]; [18]
  Plant response rating, Foxtail, Giant: 10
Giant foxtail [3]; [19]
  Foxtail, Giant plant response rating: 50
Morningglory [4]; [18]
  Plant response rating, Morningglory: 0
Morningglory [4]; [19]
  Morningglory plant response rating: 0
Pigweed [5]; [18]
  Plant response rating, Pigweed: 0
Pigweed [5]; [19]
  Pigweed plant response rating: 0
Velvetleaf [6]; [18]
  Plant response rating, Velvetleaf: 0
Velvetleaf [6]; [19]
  Velvetleaf plant response rating: 0
Wheat [7]; [18]
  Plant response rating, Wheat: 0
Wheat [7]; [19]
  Wheat plant response rating: 0
Corn [8]; [18]
  Plant response rating, Corn: 0
Corn [8]; [19]
  Corn plant response rating: 0
Barnyardgrass [9]; [18]
  Plant response rating, Barnyardgrass: 0
Barnyardgrass [9]; [20]
  Plant response rating, Barnyardgrass: 10
Large (Lg) crabgrass [10]; [18]
  Plant response rating, Crabgrass, Large: 10
Large (Lg) crabgrass [10]; [20]
  Plant response rating, Crabgrass, Large: 20
Giant foxtail [11]; [18]
  Plant response rating, Foxtail, Giant: 0
Giant foxtail [11]; [20]
  Plant response rating, Foxtail, Giant: 20
Morningglory [12]; [18]
  Plant response rating, Morningglory: 20
Morningglory [12]; [20]
  Plant response rating, Morningglory: 30
Pigweed [13]; [18]
  Plant response rating, Pigweed: 20
Pigweed [13]; [20]
  Plant response rating, Pigweed: 50
Velvetleaf [14]; [18]
  Plant response rating, Velvetleaf: 0
Velvetleaf [14]; [20]
  Plant response rating, Velvetleaf: 10
Wheat [15]; [18]
  Plant response rating, Wheat: 0
Wheat [15]; [20]
  Plant response rating, Wheat: 0
Corn [16]; [18]
  Plant response rating, Corn: 0
Corn [16]; [20]
  Plant response rating, Corn: 0
rice
  Plant response rating, Rice: 0
sedge, umbrella
  Plant response rating, Sedge, Umbrella: 0
Heteranthera limosa
  Plant response rating, Ducksalad: 0
Barnyardgrass [17]
  Plant response rating, Barnyardgrass: 0

## Brc1cnc(Oc2ccccc2-n2ccc(Br)n2)nc1 [Compound 20]
Barnyardgrass [1]; [18]
  Plant response rating, Barnyardgrass: 0
Barnyardgrass [1]; [19]
  Barnyardgrass plant response rating: 20
Large (Lg) crabgrass [2]; [18]
  Plant response rating, Crabgrass, Large: 20
Large (Lg) crabgrass [2]; [19]
  Crabgrass, Large plant response rating: 90
Giant foxtail [3]; [18]
  Plant response rating, Foxtail, Giant: 20
Giant foxtail [3]; [19]
  Foxtail, Giant plant response rating: 80
Morningglory [4]; [18]
  Plant response rating, Morningglory: 0
Morningglory [4]; [19]
  Morningglory plant response rating: 0
Pigweed [5]; [18]
  Plant response rating, Pigweed: 30
Pigweed [5]; [19]
  Pigweed plant response rating: 90
Velvetleaf [6]; [18]
  Plant response rating, Velvetleaf: 0
Velvetleaf [6]; [19]
  Velvetleaf plant response rating: 0
Wheat [7]; [18]
  Plant response rating, Wheat: 0
Wheat [7]; [19]
  Wheat plant response rating: 0
Corn [8]; [18]
  Plant response rating, Corn: 0
Corn [8]; [19]
  Corn plant response rating: 0
Barnyardgrass [9]; [18]
  Plant response rating, Barnyardgrass: 0
Barnyardgrass [9]; [20]
  Plant response rating, Barnyardgrass: 30
Large (Lg) crabgrass [10]; [18]
  Plant response rating, Crabgrass, Large: 0
Large (Lg) crabgrass [10]; [20]
  Plant response rating, Crabgrass, Large: 30
Giant foxtail [11]; [18]
  Plant response rating, Foxtail, Giant: 0
Giant foxtail [11]; [20]
  Plant response rating, Foxtail, Giant: 60
Morningglory [12]; [18]
  Plant response rating, Morningglory: 40
Morningglory [12]; [20]
  Plant response rating, Morningglory: 40
Pigweed [13]; [18]
  Plant response rating, Pigweed: 80
Pigweed [13]; [20]
  Plant response rating, Pigweed: 100
Velvetleaf [14]; [18]
  Plant response rating, Velvetleaf: 20
Velvetleaf [14]; [20]
  Plant response rating, Velvetleaf: 70
Wheat [15]; [18]
  Plant response rating, Wheat: 0
Wheat [15]; [20]
  Plant response rating, Wheat: 20
Corn [16]; [18]
  Plant response rating, Corn: 0
Corn [16]; [20]
  Plant response rating, Corn: 30
rice
  Plant response rating, Rice: 45
sedge, umbrella
  Plant response rating, Sedge, Umbrella: 75
Heteranthera limosa
  Plant response rating, Ducksalad: 60
Barnyardgrass [17]
  Plant response rating, Barnyardgrass: 20
